Measured values taken from patent US20120277286A1, “COMPOSITIONS AND METHODS FOR THE TREATMENT OR PREVENTION OF MITOCHONDRIAL DISEASES” (The Government of the USA, as represented by the Secretary, …, priority 2009, published 2012).

How the values were obtained:
HeLa cells = experiment: PINK1-YFP imaging and colocalization in HeLa cells; format: cell-based; details: live imaging, 10 μM CCCP
Protocol: (§1) Confocal microscopy of fixed samples, scoring of Parkin recruitment and Parkininduced mitophagy, and live cell imaging were performed as described previously (Narendra (2008) J Cell Biol 183: 795-803). Experiments in Mfn1/2 null cells were performed as described previously with minor modifications.
as §1, with “Parkin-induced” for “Parkininduced”, “imageing” for “imaging”, “modifications described in the supplemental methods (Narendra (2008) J Cell Biol 183: 795-803).” for “modifications.”

PINK1-V5 = PINK1-V5 accumulation in cortical neurons, immunoblot; format: cell-based, rat; details: 1 μM CCCP, 6 hours
Source text: HeLa YFP-Parkin, E18 Rat cortical neurons, PINK1^+/+ SV40 transformed MEFs cells, PINK1^−/− SV40 transformed MEF, M17 neuroblastoma control shRNA, M17 neuroblastoma PINK1, Mfn1/2^−/− MEF, and Parl^−/− MEF cell lines have been described previously (Narendra (2008) J Cell Biol 183: 795-803). PINK1^+/+ and PINK1^−/− primary MEFs were isolated from embryos using a standard protocol (Gautier (2008) Proc Natl Acad Sci USA 105: 11364-11369). Parkin^+/+ and Parkin^−/− transformed MEFs were created by isolation of primary cells from embryos of B6.129S4-Park2^tm1Shn/J mice (Jackson Labs), using a standard protocol (Gautier (2008) Proc Natl Acad Sci USA 105: 11364-11369), followed by retroviral transduction of SV40 (Applied Biological Materials, Inc.). YFP-Parkin, YFP-Parkin mutants, mCherry-Parkin, PINK1-YFP, PINK1 KD-YFP, PINK1 Δ1-110-YFP, and Opa3-PINK1 Δ1-110-YFP are in C1 or N1 Clontech vectors. PINK1WT-V5, PINK1 KD-V5, and PINK1 Δ1-156-V5 are in pDest40 vector (Invitrogen). PINK1 patient mutations are in the pLenti-V5 vector (Invitrogen). PINK1-myc is in a pCMBTNT vector (Promega). The PARL shRNA construct targeting (5′ […] 3′) is in the pSuper-GFP vector. […]

HEK293 cells = experiment: Endogenous Parkin localization by immunostaining after depolarization; format: cell-based; details: 10 μM CCCP
Protocol: Mitochondrial fission has been linked to the function of Parkin and to the autophagy of small defective mitochondria that lack membrane potential. To test whether mitochondrial depolarization causes Parkin accumulation on mitochondria, HEK293 cells were treated with the mitochondrial uncoupler carbonyl cyanide m-chlorophenylhydrazone (CCCP). Within 1 hour of adding CCCP, endogenous Parkin was recruited to mitochondria in the majority of cells (FIG. 1B) and increased appearance in the heavy membrane pellet on Western blots (FIG. 1C). […] As with endogenous Parkin in HEK293 cells, CCCP exposure induced the redistribution of YFP-Parkin from the cytosol to the mitochondria (FIGS. 1E and F). […] The mitochondrial translocation of Parkin caused by mitochondrial depolarization was also assayed by fluorescence loss in photobleaching (FLIP).
Cultured cells seeded in borosilicate chamber slides (Thermo Fisher Scientific) were transfected or cotransfected with YFP-Parkin, ECFP-Parkin, mCherry-Parkin, DsRed-Mito (Clontech Laboratories, Inc.), pcDNA3.1 (Invitrogen), vMIA, and/or Drp1K38A constructs using Fugene 6 (Roche). Parkin-myc was a gift from M. Cookson (National Institutes of Health, Bethesda, Md.). Cells were fixed 12-24 hours after transfection with 4% paraformaldehyde in PBS. […]

N#CC(C#N)=NNc1cccc(Cl)c1 [CCCP, carbonyl cyanide m-chlorophenylhydrazone]
time when increase of PINK1-YFP expression was first detectable (HeLa cells): 1 to 5 min
PINK1-V5 level (PINK1-V5): increases
time to recruitment of endogenous Parkin to mitochondria in the majority of cells (HEK293 cells): ≤ 1 h
